Our source for the foam volume and foam quality values is patent US20110135583A1, “Anionic Isosorbide Derivatives and Their Use (II)” (COGNIS IP […], priority 2009, published 2011).

The nature of this data set: Foam quality and foam volume test of the isosorbide sulfosuccinate. The data set is classed as physicochemical. Particulars: 2.5% active substance in water, stirred to foam under standard conditions. Here is the method: The foam quality and foam volume of this surfactant was tested as follows:
The isosorbide sulfosuccinate is dissolved in water at a rate of 2.5% active substance, and stirred to foam under standard conditions. According to a visual evaluation the surfactant of Example 1 has a foam quality of 4-5 on a scale of 1 (small bubbles, high cushion, stable foam) to 5 (large bubbles, unstable foam), and a foam volume equal to 32% of the foam for a standard surfactant (see FIG. 1).

Take “Isosorbide Lauroylester Sulfosuccinate [Example 1]”: the foam volume was 32 % of the foam for a standard surfactant. Besides, the foam quality (visual evaluation, scale of 1 (small bubbles, high cushion, stable foam) to 5 (large bubbles, unstable foam)) was 4-5.
